Laboratory results from patent publication US20190142775A1, “TREATING ACTIVATED DERMAL CONDITIONS WITH AGENTS THAT TARGET ENERGY METABOLISM” (Sciaderm, Inc., priority 2016, published 2019).

Legend:
[1] = system: psoriatic plaques; experiment: Open label case report: topical 3-BP formulation applied to psoriatic plaques of one subject; assay type: in vivo, human
Experimental: The present Example describes use of an exemplary topical formulation of 3-BP in the treatment of psoriasis. The goal of this study is to reduce the hyper-proliferation of skin cells and deactivate the inflammatory response associated with the condition. Therefore, treatment was planned in a sequential dose escalating fashion. Dose escalation is accomplished by a step wise increase in formulation strength and/or application volume and frequency. Daily or twice daily doses were administered, with an initial strength ranging from about 0.001% to about 0.05% and administered doses were increased incrementally to a final strength ranging from about 5% to about 25% of the total weight of the formulation. As a first objective, the maximum tolerated dose was established, which was indicated by the observation of local irritation in the area of application. In some cases, once local irritation was observed, dosing was then reduced by approximately factor of four and continued or readjusted as appropriate to assess efficacy.
An exemplary topical formulation of 3-BP was prepared as described below: […]
An exemplary 3-Bromo-Pyruvic Acid (“BPA”) formulation was compounded as a lotion of low viscosity, filled dropper bottles (e.g., a 3 mL dropper bottle).
Compounding: 3-Bromo-Pyruvic Acid, BPA, CAS#1113-59-3, was obtained from AK Scientific, Inc., Union City, Calif. and stored at frozen conditions. Given the known instability of BPA at higher pH (e.g., physiologic pH) the final formulation consisted of 75% acetic acid (5% w/w) and 25% compounding base with a pH of approximately 3.0. During formulation, all ingredients were chilled to +5° C., and kept on ice for the entire procedure.
Stock solution A was prepared by dissolving the appropriate amount of solid bromopyruvic acid, BPA, in 5% acetic acid at a concentration of 2% to 10% (w/w); depending on the desired final concentration, intermediate dilutions of for example 1:5, using 5% acetic acid, may have been prepared as well.
Stock solution B consisted of a commercially available compounding base, Vanicream™, NDC 45334-300-16, that was diluted 1:1 in 5% acetic acid. The final formulation was comprised of blending BPA solution (Stock A) with compounding base (Stock B) at a ratio of 1:1. The resulting formulation is of low viscosity and filled in 3 ml ophthalmic dropper bottles.
Final concentration of BPA was between 0.15 mM (0.0025% w/w) and 300 mM (5.0% w/w). To preserve stability of the active ingredient, the formulation was stored frozen at −18° C. until use. Once treatment application commenced, bottles were kept at refrigerated conditions (+5° C.) for up to 1 week and then replaced with freshly made product.
This research was conducted as an out-patient, open label, intra-individually controlled repeated measurement experiment involving up to 10 subjects. To minimize bias, subjects were treated at selected target plaques. Neighboring plaques serve as an intra-individual control.
An exemplary 3-BP formulation was self-administered as one or two drops per application, depending on size of the treatment area. Care was taken for drops to fall freely from the dropper tip to ensure a consistent dose volume of ≈25-50 μl/drop. Most treatment applications were done in the morning and photographs were taken mostly in the evening to allow possible moisturizing effects of the compounding base to wear off.
Within each treatment area, the severity is estimated by three clinical signs: erythema (redness), induration (thickness) and desquamation (scaling). Efficacy is assessed using the Investigators Global Assessment scale and the Psoriasis Area Severity Index (PASI), which are summarized in Tables 1 and 2 below. In addition, target lesions are photographed and adjudicated by a blinded independent investigator. These efficacy variables were assessed at every visit.
Safety is assessed by collection of research events and review of concomitant treatments. Clinical adverse event reporting is conducted at each visit. […]

[2] = at higher pH (e.g., physiologic pH); cited from earlier work
[3] = Plaque #3, right forearm, one drop per day, 1.75 mM, one week
[4] = Plaque #4, left forearm, 0.15 mM, QD, 2.5 weeks
[5] = Plaque #5, left elbow, 1 drop per day, 0.15 mM, 10 days

O=C(O)C(=O)CBr [3-BP, 3-bromopyruvate]
Adverse effects at a strength of 0.5 mM ([1]; 0.5 mM, summary of case report): without any observable adverse effects | Efficacy at a strength of 0.5 mM ([1]; 0.5 mM, summary of case report): highly effective | Plaque status 20 weeks after last treatment application ([1]; Plaque 1, left forearm, 26 weeks after baseline (FIG. 1)): complete remission | Local adverse effects ([1]; Plaque 1, left forearm, BID, 0.1% to 5.0% (6-300 mM), after approximately one week of treatment): local irritation, oozing, and crusting | Treatment effect on psoriatic plaque ([1]; Plaque 1, left forearm, one drop twice per day, strength escalated 0.1% to 5.0% (6-300 mM) in first week, later reduced to QD and 0.1%, stopped after 6 weeks): completely resolved | Plaque status 20 weeks after last treatment application ([1]; Plaque #2, right forearm): complete remission | Duration of complete remission after last treatment application ([1]; Plaque #2, right forearm, as of the date of the last visit): approximately 8 months | Tolerability / local adverse effects ([1]; Plaque #2, right forearm, once daily 0.1% (6 mM) one week, then 0.03% (1.75 mM) two weeks): well tolerated and only some mild local irritation | Treatment effect on psoriatic plaque ([1]; Plaque #2, right forearm, once daily 0.1% (6 mM) one week, then 0.03% (1.75 mM) two weeks, Day 21): mostly resolved | Tolerability ([1]; Plaque #3, right forearm, 0.5 mM, once per day): well tolerated | Treatment effect on severity of psoriasis plaques ([1]; Plaque #3, right forearm, 1 mM QD 10 days, then 0.5 mM once per day): Significant improvement | Local adverse effects ([1]; Plaque #3, right forearm, 1 mM, QD, 10 days): minor local irritation | Plaque status after treatment was stopped ([1]; Plaque #3, right forearm, after 1.75 mM QD and 6 mM every other day): psoriatic skin afflictions remained | Local adverse effects [1, 3]: itching and pin-head sized crusting | Treatment effect on psoriatic plaque [1, 3]: improved | Local adverse effects ([1]; Plaque #3, right forearm, resumed at 6 mM every other day after one week pause): local irritation became more pronounced | Tolerability [1, 4]: well tolerated | Treatment effect on psoriatic plaque [1, 4]: only marginal efficacy | Time plaque remained resolved after the last application ([1]; Plaque #4, left forearm, 0.5 mM): more than 6 weeks | Local adverse effects ([1]; Plaque #4, left forearm, 0.5 mM, Day 18 to 43): did not induce any local irritancy or other unwanted effects | Treatment effect on psoriatic plaque ([1]; Plaque #4, left forearm, 0.5 mM, Day 18 to 43, continued treatment): completely resolved | Treatment effect on psoriatic plaque ([1]; Plaque #5, left elbow, 0.5 mM, 1 drop QD Days 10-19, 2 drops QD from Day 20, Day 47 (FIG. 4), versus untreated right elbow): completely clear of psoriasis | Tolerability [1, 5]: well tolerated | Treatment effect on psoriatic plaque [1, 5]: only marginal improvement | Response of all treated plaques ([1]; five different or recurring psoriasis plaques, over a period of three to six weeks): responded favorably or completely resolved | Concentration inducing local irritation / at which adverse events started to emerge ([1]; local irritation, including oozing and crusting, summary of case report): ≥ 1000 µM | Outcome of local adverse effects after cessation of treatment ([1]; within a few weeks after treatment was stopped): resolved without sequelae | Stability of BPA [2]: instability
